Oligonucleotides are written 5' to 3', each unit as a sugar letter and its base; * is a phosphorothioate linkage, no mark a phosphodiester; rarer units and linkages stand in square brackets, end groups in braces. Plain capitals give the bases only. m = 2'-O-methyl; {P} = phosphate; f = 2'-fluoro
System: C3 mRNA
Assay: Dose response experiments (DRC) of modification variants, C3 mRNA knockdown in HepG2 cells
Format: cell-based, human
Conditions: for IC50 / IC80: 10 concentrations from 100 nM in 6-fold dilution steps; for Max KD: DRC experiments
Experimental: HepG2 cells were obtained from ATCC (ATCC in partnership with LGC Standards, Wesel, Germany, cat. #ATCC-HB-8065) and cultured in MEM Eagle (#M2279, Sigma-Aldrich, Germany), supplemented to contain 10% fetal calf serum (#1248D, Biochrom GmbH, Berlin, Germany), 1× non-essential amino acids (#K0293; Biochrom, Berlin, Germany), 4 mM L-Glutamine (#K0283, Biochrom, Berlin, Germany) and 100 U/ml Penicillin/100 μg/ml Streptomycin (#A2213, Biochrom GmbH, Berlin, Germany) at 37° C. in an atmosphere with 5% CO2 in a humidified incubator.
siRNAs were designed and synthesized based on the nucleotide sequence of the top siRNAs in terms of activity from Examples 1 and 2 (siRNA ID: 1, 4, 9, 10, 16, and 22) with different modification patterns. 5 “variants” were designed and synthesized for each of the top siRNA nucleotide sequences, and each duplex is identified as “variant1”, “variant2”, “variant3”, variant4”, “variant5” depending on which modifications were made. siRNAs from Examples 1 and 2 (siRNA ID: 1, 4, 9, 10, 16, and 22) are identified as “variant0”.
Transfection of siRNA was carried out with Lipofectamine RNAiMax (Invitrogen/Life Technologies, Karlsruhe, Germany) according to manufacturer's instructions for reverse transfection.
Each siRNA was tested using dose response experiments (DRC) in HepG2 cells. Two additional siRNAs (siRNA ID 26 and 27), known to knockdown C3 expression, were used as positive controls.
Dose-response experiments were done with siRNA in 10 concentrations transfected in quadruplicates, starting at 100 nM in 6-fold dilutions steps down to ˜10 fM. Mock transfected cells served as negative controls.
For each well, the target mRNA level was normalized to the respective GAPDH mRNA level. The activity of a given siRNA was expressed as percent mRNA concentration of the respective target (normalized to GAPDH mRNA) in treated cells, relative to the target mRNA concentration (normalized to GAPDH mRNA) averaged across mock transfected wells (DRCs).

With “26 (sense CAACUCACCUGUAAUAAAUUU; antisense AUUUAUUACAGGUGAGUUGUU; siRNA; sense: all phosphodiester, sugars by position not given here; antisense: all phosphodiester, 5' {P}, sugars by position not given here) [compound 26]” the IC50 was 0.006 nM, the IC80 was 0.062 nM and the “Max KD” value was 86%.

In the case of “27 (sense GAGCCGUUCUCUACAAUUAUU; antisense UAAUUGUAGAGAACGGCUCUU; siRNA; sense: all phosphodiester, sugars by position not given here; antisense: all phosphodiester, 5' {P}, sugars by position not given here) [compound 27]”, the IC50 is reported as 0.004 nM, the IC80 is reported as 0.027 nM and the “Max KD” value is reported as 89%.

“28 (sense mU*mC*fAmAmCmUfCfAfCmCmUfGmUmAmAmUfAmAmA; antisense mU*fU*mUmAmUmUmAmCmAmGmGmUmGfAmGmUmUmGmA*mU*mC; siRNA) [compound 28]” was tested, and the IC50 was 0.001 nM, the IC80 was 0.711 nM and the “Max KD” value was 95%.

In the case of “29 (sense fU*mC*fAmAfCmUfCmAfCmCfUmGfUmAfAmUfAmAfA; antisense mU*fU*mUfAmUfUmAfCmAfGmGfUmGfAmGfUmUfGmA*mU*mC; siRNA) [compound 29]”, the IC50 is reported as 0.979 nM and the “Max KD” value is reported as 68%.

“30 (sense fU*mC*fAmAfCmUfCmAfCmCfUmGfUmAfAmUfAmAfA; antisense mU*fU*mUmAmUmUmAmCmAmGmGmUmGfAmGmUmUmGmA*mU*mC; siRNA) [compound 30]” was tested, and the “Max KD” value was 36%.

In the case of “31 (sense fU*mC*fAmAfCmUfCmAfCmCfUmGfUmAfAmUfAmAfA; antisense mU*fU*mUmAmUfUmAmCmAmGmGmUmGfAmGfUmUmGmA*mU*mC; siRNA) [compound 31]”, the IC50 is reported as 0.343 nM, the IC80 is reported as 7.64 nM and the “Max KD” value is reported as 81%.

For “32 (sense mU*mC*fAmAmCmUfCfAfCmCmUfGmUmAmAmUfAmAmA; antisense mU*fU*mUmAmUfUmAmCmAmGmGmUmGfAmGfUmUmGmA*mU*mC; siRNA) [compound 32]”, the “C3 knockdown, comparison among modification variants of the same nucleotide sequence” value was “most effective in C3 knockdown”, the IC50 was 0.018 nM and the IC80 was 0.108 nM. The “Max KD” value was 93%.

“33 (sense mU*mC*fCmAmAmGfCfCfUmUmGfGmCmUmCmAfAmUmA; antisense mU*fA*mUmUmGmAmGmCmCmAmAmGmGfCmUmUmGmGmA*mA*mC; siRNA) [compound 33]” was tested, and the IC50 was 0.075 nM, the IC80 was 0.601 nM and the “Max KD” value was 91%.

For “34 (sense fU*mC*fCmAfAmGfCmCfUmUfGmGfCmUfCmAfAmUfA; antisense mU*fA*mUfUmGfAmGfCmCfAmAfGmGfCmUfUmGfGmA*mA*mC; siRNA) [compound 34]”, the IC50 was 0.324 nM, the IC80 was 1.64 nM and the “Max KD” value was 86%.

In the case of “35 (sense fU*mC*fCmAfAmGfCmCfUmUfGmGfCmUfCmAfAmUfA; antisense mU*fA*mUmUmGmAmGmCmCmAmAmGmGfCmUmUmGmGmA*mA*mC; siRNA) [compound 35]”, the IC50 is reported as 0.622 nM and the “Max KD” value is reported as 55%.

For “36 (sense fU*mC*fCmAfAmGfCmCfUmUfGmGfCmUfCmAfAmUfA; antisense mU*fA*mUmUmGfAmGmCmCmAmAmGmGfCmUfUmGmGmA*mA*mC; siRNA) [compound 36]”, the IC50 was 0.486 nM and the “Max KD” value was 68%.

With “37 (sense mU*mC*fCmAmAmGfCfCfUmUmGfGmCmUmCmAfAmUmA; antisense mU*fA*mUmUmGfAmGmCmCmAmAmGmGfCmUfUmGmGmA*mA*mC; siRNA) [compound 37]” the IC50 was 0.168 nM, the IC80 was 1.38 nM and the “Max KD” value was 86%.

In the case of “38 (sense mA*mU*fCmGmGmAfUfCfUmUmCfAmCmCmGmUfCmAmA; antisense mU*fU*mGmAmCmGmGmUmGmAmAmGmAfUmCmCmGmAmU*mA*mG; siRNA) [compound 38]”, the IC50 is reported as 0.151 nM, the IC80 is reported as 0.728 nM and the “Max KD” value is reported as 91%.

“39 (sense fA*mU*fCmGfGmAfUmCfUmUfCmAfCmCfGmUfCmAfA; antisense mU*fU*mGfAmCfGmGfUmGfAmAfGmAfUmCfCmGfAmU*mA*mG; siRNA) [compound 39]” was tested, and the IC50 was 0.326 nM, the IC80 was 1.66 nM and the “Max KD” value was 86%.

“40 (sense fA*mU*fCmGfGmAfUmCfUmUfCmAfCmCfGmUfCmAfA; antisense mU*fU*mGmAmCmGmGmUmGmAmAmGmAfUmCmCmGmAmU*mA*mG; siRNA) [compound 40]” was tested, and the IC50 was 0.468 nM, the IC80 was 2.44 nM and the “Max KD” value was 87%.

“41 (sense fA*mU*fCmGfGmAfUmCfUmUfCmAfCmCfGmUfCmAfA; antisense mU*fU*mGmAmCfGmGmUmGmAmAmGmAfUmCfCmGmAmU*mA*mG; siRNA) [compound 41]” was tested, and the IC50 was 1.4 nM, the IC80 was 11.1 nM and the “Max KD” value was 84%.

With “42 (sense mA*mU*fCmGmGmAfUfCfUmUmCfAmCmCmGmUfCmAmA; antisense mU*fU*mGmAmCfGmGmUmGmAmAmGmAfUmCfCmGmAmU*mA*mG; siRNA) [compound 42]” the IC50 was 0.5 nM, the IC80 was 2.91 nM and the “Max KD” value was 84%.

For “43 (sense mU*mC*fAmAmCmUfUfCfCmUmCfCmUmGmCmGfAmAmA; antisense mU*fU*mUmCmGmCmAmGmGmAmGmGmAfAmGmUmUmGmA*mC*mG; siRNA) [compound 43]”, the IC50 was 0.096 nM, the IC80 was 3.22 nM and the “Max KD” value was 82%.

For “44 (sense fU*mC*fAmAfCmUfUmCfCmUfCmCfUmGfCmGfAmAfA; antisense mU*fU*mUfCmGfCmAfGmGfAmGfGmAfAmGfUmUfGmA*mC*mG; siRNA) [compound 44]”, the IC50 was 0.386 nM and the “Max KD” value was 76%.

“45 (sense fU*mC*fAmAfCmUfUmCfCmUfCmCfUmGfCmGfAmAfA; antisense mU*fU*mUmCmGmCmAmGmGmAmGmGmAfAmGmUmUmGmA*mC*mG; siRNA) [compound 45]” was tested, and the IC50 was 0.905 nM and the “Max KD” value was 50%.

For “46 (sense fU*mC*fAmAfCmUfUmCfCmUfCmCfUmGfCmGfAmAfA; antisense mU*fU*mUmCmGfCmAmGmGmAmGmGmAfAmGfUmUmGmA*mC*mG; siRNA) [compound 46]”, the IC50 was 0.54 nM and the “Max KD” value was 63%.

For “47 (sense UCAACUUCCUCCUGCGAAA; antisense UUUCGCAGGAGGAAGUUGACG; 2'-F, 2'-OMe, phosphorothioate modifications, chemistry not fully specified) [compound 47]”, the IC50 was 0.055 nM, the IC80 was 0.708 nM and the “Max KD” value was 83%.

For “48 (sense mC*mA*fAmUmGmAfCfUfUmUmGfAmCmGmAmGfUmAmA; antisense mU*fU*mAmCmUmCmGmUmCmAmAmAmGfUmCmAmUmUmG*mG*mA; siRNA) [compound 48]”, the IC50 was 0.119 nM, the IC80 was 8.35 nM and the “Max KD” value was 82%.

“49 (sense fC*mA*fAmUfGmAfCmUfUmUfGmAfCmGfAmGfUmAfA; antisense mU*fU*mAfCmUfCmGfUmCfAmAfAmGfUmCfAmUfUmG*mG*mA; siRNA) [compound 49]” was tested, and the “Max KD” value was 28%.

In the case of “50 (sense fC*mA*fAmUfGmAfCmUfUmUfGmAfCmGfAmGfUmAfA; antisense mU*fU*mAmCmUmCmGmUmCmAmAmAmGfUmCmAmUmUmG*mG*mA; siRNA) [compound 50]”, the “Max KD” value is reported as 16%.

In the case of “51 (sense fC*mA*fAmUfGmAfCmUfUmUfGmAfCmGfAmGfUmAfA; antisense mU*fU*mAmCmUfCmGmUmCmAmAmAmGfUmCfAmUmUmG*mG*mA; siRNA) [compound 51]”, the “Max KD” value is reported as 32%.

For “52 (sense mC*mA*fAmUmGmAfCfUfUmUmGfAmCmGmAmGfUmAmA; antisense mU*fU*mAmCmUfCmGmUmCmAmAmAmGfUmCfAmUmUmG*mG*mA; siRNA) [compound 52]”, the IC50 was 0.058 nM, the IC80 was 1.89 nM and the “Max KD” value was 85%.

In the case of “53 (sense mC*mC*fAmAmCmUfAfCfAmUmGfAmAmCmCmUfAmCmA; antisense mU*fG*mUmAmGmGmUmUmCmAmUmGmUfAmGmUmUmGmG*mC*mU; siRNA) [compound 53]”, the IC50 is reported as 0.056 nM, the IC80 is reported as 0.51 nM and the “Max KD” value is reported as 91%.

For “54 (sense fC*mC*fAmAfCmUfAmCfAmUfGmAfAmCfCmUfAmCfA; antisense mU*fG*mUfAmGfGmUfUmCfAmUfGmUfAmGfUmUfGmG*mC*mU; siRNA) [compound 54]”, the IC50 was 0.29 nM, the IC80 was 1.52 nM and the “Max KD” value was 89%.

In the case of “55 (sense fC*mC*fAmAfCmUfAmCfAmUfGmAfAmCfCmUfAmCfA; antisense mU*fG*mUmAmGmGmUmUmCmAmUmGmUfAmGmUmUmGmG*mC*mU; siRNA) [compound 55]”, the IC50 is reported as 0.265 nM, the IC80 is reported as 1.74 nM and the “Max KD” value is reported as 89%.

In the case of “56 (sense fC*mC*fAmAfCmUfAmCfAmUfGmAfAmCfCmUfAmCfA; antisense mU*fG*mUmAmGfGmUmUmCmAmUmGmUfAmGfUmUmGmG*mC*mU; siRNA) [compound 56]”, the IC50 is reported as 0.228 nM, the IC80 is reported as 1.2 nM and the “Max KD” value is reported as 91%.

“57 (sense mC*mC*fAmAmCmUfAfCfAmUmGfAmAmCmCmUfAmCmA; antisense mU*fG*mUmAmGfGmUmUmCmAmUmGmUfAmGfUmUmGmG*mC*mU; siRNA) [compound 57]” was tested, and the IC50 was 0.029 nM, the IC80 was 1.38 nM and the “Max KD” value was 91%.

From patent US20230095695A1, “RNAS FOR COMPLEMENT INHIBITION” (Apellis Pharmaceuticals, Inc., priority 2020, published 2023)
